Patent US20010046668A1, “Fluorescence polarization method for determining protease activity” (G.D. Searle & Co., priority 1994, published 2001)
No end group written: not given here.

Biological target: HCMV protease (also known as assemblin) encoded by UL80 (Human cytomegalovirus, UniProt P16753)
Test: Assemblin fluorescence polarization assay: hydrolysis of biotin/DTAF peptide substrate, quenched with avidin
Format: biochemical, human cytomegalovirus strain AD169
Conditions: for Polarization: protease 100 nM, substrate 5 μM final, room temperature, avidin added
Protocol: The construction also encoded six additional histidine residues at the amino terminus of the protease. These additional histidine residues provided an affinity ligand by which it was purified using nickel-nitriloacetic acid-agarose (Qiagen).
The assay was performed in a buffer consisting 10 mM Phosphate buffer, pH 7.4, 20% glycerol, 150 mM sodium acetate, 0.1% CHAPS, 0.1 mM EDTA, 0.05% BSA, 2 mM NaSO3. The pH of the buffer was adjusted to 7.4 before the addition of glycerol.
The purified protease was stored as a 10 μM stock solution in 50/50 (V/V) glycerol/water, 50 μL per vial, and held at −20° C. A positive displacement pipette was used to make the 50 μL aliquots. This stock was diluted with assay buffer to 32 nM. A 100 μL aliquot of this solution was used in the enzyme reaction. A 150 μM substrate stock solution was prepared in assay buffer and stored at 4° C. in the dark. A 20 μM dilute assay stock was prepared by dilution of the 150 μM storage stock. A 5 mg/mL avidin stock solution was made by dissolving avidin (Molecular Probes) in assay buffer and stored in the refrigerator at 4° C. Roundbottom 96-well plate microtiter plates (Black MicroFluor, Dynatec) were pre-blocked with 1.0% BSA in PBS, pH 7.4, and stored at 4° C. The plates were rinsed and dried before use.
An HCMV protease (also known as assemblin) encoded by UL80, in buffer (100 nM) was added in multiple wells to rinsed and dried, pre-blocked microtiter plate. No precautions are taken to stabilize the temperature. Substrate (5 μM final concentration) was added, mixed 5 times, and incubated at room temperature. Avidin (35 μL of 5 mg/mL) was added to one group of wells after 10 minutes, to a second group of wells after 20 minutes and to the remaining wells after thirty minutes, mixed 5 times, and the polarization of the resulting mixture was measured on the FPM2 fluorescence polarimeter. The complete hydrolysis to Ser-Ala-Leu-Arg-Lys(DTAF)-NH2 gave a Pmin value of 32.1 mP.

Chain of HCMV protease (also known as assemblin) encoded by UL80 (P16753 1-256): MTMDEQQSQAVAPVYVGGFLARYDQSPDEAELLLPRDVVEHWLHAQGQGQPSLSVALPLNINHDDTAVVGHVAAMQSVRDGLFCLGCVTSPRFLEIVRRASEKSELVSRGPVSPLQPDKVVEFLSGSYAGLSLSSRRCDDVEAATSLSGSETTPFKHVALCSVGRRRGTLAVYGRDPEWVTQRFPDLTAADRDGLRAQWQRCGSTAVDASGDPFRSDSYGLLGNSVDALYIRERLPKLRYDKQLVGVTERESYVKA

| Substance | ΔP = Pmax − P(t) (time 0 min) [mP] | Polarization (time 0 min) [mP] | ΔP = Pmax − P(t) (time 10 min) [mP] | Polarization (time 10 min) [mP] | ΔP = Pmax − P(t) (time 20 min) [mP] | Polarization (time 20 min) [mP] | ΔP = Pmax − P(t) (time 30 min) [mP] | Polarization (time 30 min) [mP] | Pmin value (polarization) (complete hydrolysis of the substrate to the cleaved fluorescent fragment) [mP] |
| --- | --- | --- | --- | --- | --- | --- | --- | --- | --- |
| Biotin-γ-Abu-Gly-Val-Val-Asn-Ala-Ser-Ala-Arg-Leu-Lys(DTAF)-NH2 [Example 1] | 0.0 | 214.1 | 47.0 | 167.2 | 77.2 | 136.9 | 99.9 | 114.2 |  |
| Ser-Ala-Leu-Arg-Lys(DTAF)-NH2 (SALRK(DTAF)-NH2) [cleaved fluorescent fragment from complete hydrolysis of the assemblin substrate] |  |  |  |  |  |  |  |  | 32.1 |
